Measurements reported in patent US9512406B2, “Generating hepatocytes” (The J. David Gladstone Institutes, a testamentary trust …, priority 2013, dated 2016).
Numbered stars: 1 amine (or outer) side, 2 acyl side, 3 side chain; on linkers, the order of the positions; unused ones are H or OH. Square brackets hold non-standard residues; d marks the D form. Peptide text beside a SMILES is read from it. * marks the point of attachment. X1 = CC(N[*:1])C(=O)C(F)(F)C(=O)[*:2]; Boc = CC(C)(C)OC(=O)*

Columns and labels:
iMPC-EPCs [1] = assay: Expansion of iMPC-EPC colonies
[2] = system: Human newborn fibroblasts (CRL-2097, ATCC); assay: Reprogramming of newborn fibroblasts to endoderm, FOXA2-positive colonies by immunostaining; settings: day 28; added to CHIR/Activin A reprogramming medium
Description: The small molecules tested included combinations of CHIR99021 (CH), dilauroyl phosphatidylcholine (DLPC), sodium butyrate (NaB), parnate (Par), and RG108 (RG). […] Medium containing Activin A was additionally supplemented with the indicated small molecules.
Standard immunostaining was carried out as previously reported. […] Nuclei were visualized by Hoechst (Sigma-Aldrich) staining. Images were captured using a Nikon Eclipse TE2000-U microscope.
Next, EGF and bFGF were replaced with Activin A to induce Nodal signaling and promote endoderm fate (see FIG. 1A). […] To improve the efficiency of endoderm differentiation, the cells were exposed to several small molecules.

presenilase = settings: at higher concentrations (20-400 μM); cited from earlier work
γ-secretase = settings: for total β-amyloid; cited from earlier work
iMPC-EPCs [3] = assay: Hepatocyte differentiation of iMPC-EPCs, ALB gene expression by qRT-PCR; settings: day 18 of hepatocyte specification; particularly when applied together
Description: Error bars represent SEM of technical replicates (n=3).
For qRT-PCR analysis, total RNA was extracted using the miRNeasy Mini Kit (Qiagen) or RNeasy Plus Mini Kit in combination with QIAshredder (Qiagen). First-strand reverse transcription was performed with 0.5-1 μg RNA using the iScript cDNA Synthesis Kit (BioRad) or qScript cDNA Supermix (Quanta Biosciences). qRT-PCR was performed using PerfeCTa SYBR Green SuperMix (Quanta) or iQ SYBR Green Supermix (Bio-Rad) on an Applied Biosciences ViiA 7 Real-Time PCR System (Invitrogen). aHeps purchased from Yecuris or the Liver Tissue Cell Distribution System (LTCDS) were shipped overnight in suspension, centrifuged for 5 minutes at 300×g immediately after arrival, and stored as cell pellets at −80° C. prior to RNA extraction.
To improve hepatocyte differentiation, small molecules were screened for induction of ALB gene expression.

calpain II = target: T1, calpain II (Homo sapiens, UniProt P17655); settings: purified enzyme assay; read-out: IC50 against calpain II; cited from earlier work
T1 sequence (P17655 1-700): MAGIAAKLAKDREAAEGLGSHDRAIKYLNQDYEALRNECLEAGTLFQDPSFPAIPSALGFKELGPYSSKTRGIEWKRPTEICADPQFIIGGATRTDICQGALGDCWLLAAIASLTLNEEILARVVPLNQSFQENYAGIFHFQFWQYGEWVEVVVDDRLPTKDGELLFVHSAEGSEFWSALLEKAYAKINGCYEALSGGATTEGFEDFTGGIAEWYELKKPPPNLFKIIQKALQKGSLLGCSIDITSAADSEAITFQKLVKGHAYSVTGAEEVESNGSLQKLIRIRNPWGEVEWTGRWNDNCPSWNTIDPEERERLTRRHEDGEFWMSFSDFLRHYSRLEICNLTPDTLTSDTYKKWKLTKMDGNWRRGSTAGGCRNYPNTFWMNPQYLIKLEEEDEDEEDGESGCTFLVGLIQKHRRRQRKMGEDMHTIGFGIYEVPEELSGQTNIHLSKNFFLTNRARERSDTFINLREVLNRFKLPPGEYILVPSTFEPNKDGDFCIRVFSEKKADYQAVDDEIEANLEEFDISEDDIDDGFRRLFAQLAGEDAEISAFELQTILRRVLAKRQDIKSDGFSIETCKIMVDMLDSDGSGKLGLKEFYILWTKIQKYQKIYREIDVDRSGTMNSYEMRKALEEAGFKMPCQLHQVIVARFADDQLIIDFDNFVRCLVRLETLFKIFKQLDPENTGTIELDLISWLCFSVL
T1 sequence (P04632 1-268 partner): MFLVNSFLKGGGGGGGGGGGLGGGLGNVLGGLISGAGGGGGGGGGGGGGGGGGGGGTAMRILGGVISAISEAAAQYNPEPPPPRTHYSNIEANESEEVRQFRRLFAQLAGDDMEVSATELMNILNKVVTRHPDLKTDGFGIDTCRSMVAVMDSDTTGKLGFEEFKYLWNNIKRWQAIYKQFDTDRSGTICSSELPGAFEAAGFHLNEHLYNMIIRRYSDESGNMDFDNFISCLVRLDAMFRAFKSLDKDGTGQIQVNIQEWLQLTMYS

[4] = system: histone deacetylases (HDACs); settings: isoform not stated; read-out: IC50 (histone deacetylase inhibition); cited from earlier work
CYP2D6 = CYP2D6 (Homo sapiens, UniProt P10635); settings: 2 mg/kg debrisoquine by gavage; mice repopulated with iMPC-Heps or aHeps
Source text: Scale bar=100 μm. […] Scale bars=100 μm. […] Scale bars=100 μm.

SAPK2/p38 = SAPK2/p38 (Homo sapiens, UniProt Q16539); settings: CK1 and ALK5 inhibitor versus SAPK2/p38; cited from earlier work
[5] = system: HDAC activity in HeLa extracts; settings: read-out: IC50 for inhibition of HDAC activity; cited from earlier work

Chain of SAPK2/p38 (Q16539 whole entry): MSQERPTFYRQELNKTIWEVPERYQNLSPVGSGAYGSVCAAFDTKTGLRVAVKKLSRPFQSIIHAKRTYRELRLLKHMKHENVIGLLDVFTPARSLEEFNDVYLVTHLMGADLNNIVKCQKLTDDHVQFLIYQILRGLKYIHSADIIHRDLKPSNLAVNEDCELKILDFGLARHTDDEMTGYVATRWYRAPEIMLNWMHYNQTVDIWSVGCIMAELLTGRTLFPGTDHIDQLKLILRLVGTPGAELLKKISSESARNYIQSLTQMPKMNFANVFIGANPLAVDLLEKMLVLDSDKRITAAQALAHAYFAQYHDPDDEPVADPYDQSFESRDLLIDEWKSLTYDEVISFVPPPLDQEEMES
Chain of CYP2D6 (P10635 whole entry): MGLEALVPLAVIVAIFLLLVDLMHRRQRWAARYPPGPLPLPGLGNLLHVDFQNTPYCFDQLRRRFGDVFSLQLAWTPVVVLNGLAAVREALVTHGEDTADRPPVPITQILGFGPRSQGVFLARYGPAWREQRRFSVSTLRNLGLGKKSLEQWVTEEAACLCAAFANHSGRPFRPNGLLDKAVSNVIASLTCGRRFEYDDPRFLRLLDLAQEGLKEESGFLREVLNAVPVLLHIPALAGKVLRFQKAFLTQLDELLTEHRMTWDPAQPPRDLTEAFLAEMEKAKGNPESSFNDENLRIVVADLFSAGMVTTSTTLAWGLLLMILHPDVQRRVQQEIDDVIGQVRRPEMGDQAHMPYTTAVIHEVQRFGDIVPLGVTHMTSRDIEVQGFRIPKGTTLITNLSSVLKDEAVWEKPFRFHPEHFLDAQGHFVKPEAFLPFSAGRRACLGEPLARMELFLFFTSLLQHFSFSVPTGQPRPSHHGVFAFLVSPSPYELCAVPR

For bFGF: basic fibroblast growth factor, the iMPC-EPC colony size (iMPC-EPCs [1]; EGF and bFGF added to CHIR99021 and A83-01) was “further increased”.
In the case of `CCCCCCCCCCCC(=O)OC[C@H](COP(=O)([O-])OCC[N+](C)(C)C)OC(=O)CCCCCCCCCCC` [Dilauroyl phosphatidylcholine], the “increase in the number of FOXA2-positive colonies” value [2] is reported as 2 fold.
For `C[C@H](NC(=O)Cc1cc(F)cc(F)c1)C(=O)N[C@H]1N=C(c2ccccc2)c2ccccc2N(C)C1=O` [Compound E], the “effect on presenilase activity” value (presenilase) is given as “only weakly affects”, the IC50 (γ-secretase) is given as 0.3 nM and the “induction of ALB gene expression” value (iMPC-EPCs [3]) is given as “effective”.
In the case of `Cc1cccc(-c2nn(C(=S)Nc3ccccc3)cc2-c2ccnc3ccccc23)n1` [A83-01, 3-(6-Methyl-2-pyridinyl)-N-phenyl-4-(4-quinolinyl)-1H-pyrazole-1-carbothioamide], the “induction of ALB gene expression” value (iMPC-EPCs [3]) is reported as “effective” and the iMPC-EPC colony size (iMPC-EPCs [1]; CHIR99021 combined with A83-01) is reported as “increased”.
In the case of `CCC(C)C(NC(=O)C(NC(=O)OC(C)(C)C)C(C)C)C(=O)NC(C)C(=O)C(F)(F)C(=O)NC(C(=O)NC(C(=O)OC)C(C)CC)C(C)C` (stereo not shown) [Gamma-Secretase Inhibitor II] (Boc-VI[X1]VI-OMe; configuration not given here), the IC50 (calpain II) is listed as 100000 nM.
In the case of `Cc1c[nH]c(-c2cnc(NCCNc3ccc(C#N)cn3)nc2-c2ccc(Cl)cc2Cl)n1` [CHIR99021, 6-(2-(4-(2,4-dichlorophenyl)-5-(4-methyl-1H-imidazol-2-yl)pyrimidin-2-ylamino)ethylamino)nicotinonitrile], the iMPC-EPC colony size (iMPC-EPCs [1]; CHIR99021 combined with A83-01) is reported as “increased”.
In the case of `CC1(C)NC(=O)C(CCCCCC(=O)[C@H]2CO2)NC(=O)C2CCCN2C(=O)[C@@H](Cc2ccccc2)NC1=O` (stereo partly drawn) [Chlamydocin, (3R)-3-benzyl-6,6-dimethyl-9-[6-[(2R)-oxiran-2-yl]-6-oxohexyl]-1,4,7,10-tetrazabicyclo[10.3.0]pentadecane-2,5,8,11-tetrone], the IC50 [4] is listed as ~0.15 nM.
With `N=C(N)N1Cc2ccccc2C(O)C1` (stereo not shown) [4-hydroxydebrisoquine] the “time of peak plasma level after gavage” value (CYP2D6) was 1 h.
For `NC(=O)c1ccc(-c2nc(-c3ccc4c(c3)OCCO4)c(-c3ccccn3)[nH]2)cc1` [D 4476, 4-[4-(2,3-Dihydro-1,4-benzodioxin-6-yl)-5-(2-pyridinyl)-IH-imidazol-2-yl]benzamide], the “selectivity over SAPK2/p38” value (SAPK2/p38) is listed as “greater than 20 fold”.
In the case of `Nc1ccccc1NC(=O)c1ccc(CNc2nccc(-c3cccnc3)n2)cc1` [MGCD0103, N-(2-aminophenyl)-4-[[(4-pyridin-3-ylpyrimidin-2-yl)amino]methyl]benzamide], the IC50 [4] is given as ~100 nM.
In the case of `CC(/C=C/C(=O)NO)=C\[C@@H](C)C(=O)c1ccc(N(C)C)cc1` [Trichostatin A, (R,2E,4E)-6-(4-(dimethylamino)benzoyl)-N-hydroxy-4-methylhepta-2,4-dienamide], the IC50 [4] is given as ~1.8 nM.
For `Nc1ccccc1NC(=O)CCCCCCC(=O)Nc1ccccc1` [BML-210, N1-(2-aminophenyl)-N8-phenyl-octanediamide], the IC50 [5] is given as ~80000 nM.
For `Nc1ccccc1NC(=O)c1ccc(CNC(=O)OCc2cccnc2)cc1` [MS-27-275, pyridin-3-ylmethyl-N-[[4-[(2-aminophenyl)carbamoyl]phenyl]methyl]carbamate], the IC50 [4] is listed as 100 to 1000 nM.
